Values after ≈ are worked out from the molar mass of the structure shown. Values joined by “and” are separate entries in the source; they are usually repeats but may differ in a detail not shown here. Equal entries are not always repeated. Where two headings read alike, the source gives them in different places.
Experiments:
[1] = system: Trypanosoma cruzi Tulahuen LacZ (clone C4); experiment: Trypanosoma cruzi growth on MRC-5 cells (CPRG); conditions: MRC5, 168 h, read-out: IC50 Trypanosoma cruzi
Experimental: In vitro biology: Minimum inhibitory concentration (MIC) assays on parasites Synthesized compounds were tested against different parasite cell lines (T. brucei, T. cruzi, and P. falciparum K1) for the MIC determination.
Trypanosoma cruzi cells were maintained on MRC-5 human lung fibroblast cells. The assay was performed with 5% CO2 at 37 °C in a 96-well microtiter plate. Each well contains 10 µl compound dilution and 190 µl parasite/MRC-5 cell inoculum (10:1 parasites : cells). Parasite burdens were evaluated with addition of substrate CPRG (50 µl/well stock solution with 15.2mg CPRG + 250 µl Nonidet in 100 ml PBS). After 4h incubation, the absorbance change was measured spectrophotometrically at 540 nm at 37 °C. The res ults were presented as % growth, compared with non-infected cells (0% growth) and untreated-infected controls (100 % growth) after 7-day incubation, and the

[2] = system: P. falciparum K1; experiment: Plasmodium falciparum K1 growth (Malstat); format: cell-based; conditions: reference compound, 72 h
Experimental: acceptor at a range of concentrations.
2.1.3. IC50 determination
Compounds were pre-incubated
IC50 is calculated. […] The […]
of PES (phenazine ethosulfate, 0.1 mg/ml) and NBT (Nitro Blue Tetrazolium Grade III, 2 mg/ml) in a new plate. The absorbance change was measured at 655nm. The results were shown as % reduction in parasitemia, compared to control wells with no treatment.
3. Trypanosoma brucei sample has 7*104 parasites/ml in the suspension. Cultured for 3 days, the growth of the cells was assessed fluorimetrically with the addition of resazurin in a microtiter plate. The fluorescence intensity was measured after 24h at 37 °C with the excitation wavelength at 550nm and the emission wavelength at 590nm. The results were presented as % reduction in parasite growth, compared to reference wells with no treatment, followed by IC50 calculation. Suramine was used as the reference compound […]
A compound with IC50 higher than 5 µM is classified as the […]
subsequently evaluated in a secondary assay, with broader concentration range, additional references, and other species.
IC50 values are shown in Table S1, followed by semi-quantitative activity scores, and indications for specificity. […]

[3] = system: E. coli (ΔtolC efflux-defective mutant, isogenic to ATCC 25922); experiment: microbe, parasite or virus in culture; format: cell-based; conditions: Escherichia coli, ATCC25922, read-out: MIC Ec ΔtolC
[4] = biological target: T1, MtNDH-2 (Mycobacterium tuberculosis, UniProt P95160); experiment: biochemical; design: species or system M. tuberculosis; conditions: MtNDH-2 IC50
[5] = biological target: MsNDH-2 (Mycolicibacterium smegmatis, UniProt A0QYD6); experiment: Inhibition of MsNDH-2 (NADH oxidation with menadione, absorbance at 340 nm); format: biochemical, M. smegmatis
[6] = system: P. aeruginosa (PAO1, wild-type); experiment: MIC on ESKAPE pathogens, P. aeruginosa wild-type; format: cell-based; conditions: Pseudomonas aeruginosa, PAO1, read-out: MIC Pa WT
[7] = biological target: T1, MtNDH-2; design: method as in PMID 24900541; conditions: reported earlier; cited from earlier work
[8] = system: E. coli (ATCC 25922, wild-type); experiment: MIC on ESKAPE pathogens, E. coli wild-type; format: cell-based; conditions: Escherichia coli, ATCC25922, read-out: MIC Ec WT
[9] = system: S. aureus (ATCC 29213, wild-type); experiment: MIC on ESKAPE pathogens, S. aureus; format: cell-based; conditions: Staphylococcus aureus, ATCC29213
[10] = system: M. tuberculosis strain H37Rv (ATCC 25618); experiment: MIC on M. tuberculosis by resazurin reduction microplate assay (REMA); format: cell-based; conditions: Mycobacterium tuberculosis, M. tuberculosis H37Rv, read-out: MIC Mtb
[11] = system: E. coli (D22, lpxC mutant, drug-hypersensitive); experiment: microbe, parasite or virus in culture; format: cell-based; conditions: Escherichia coli, read-out: MIC Ec D22
[12] = system: K. pneumonia (ATCC 13833, wild-type); experiment: MIC on ESKAPE pathogens, K. pneumoniae
[13] = system: P. aeruginosa (PAO750 efflux-defective mutant, isogenic to PAO1); experiment: microbe, parasite or virus in culture; format: cell-based; conditions: Pseudomonas aeruginosa, PAO1, read-out: MIC Pa efflux
[14] = system: A. baumannii (ATCC 19606, wild-type); experiment: MIC on ESKAPE pathogens, A. baumannii; format: cell-based; conditions: Acinetobacter baumannii, ATCC19606; A. baumannii ATCC 19606, wild-type; read-out: MIC Ab WT
[15] = Cytotoxicity on the MRC-5 cell line (resazurin); format: cell-based; conditions: human, MRC-5SV2 cells, MRC-5SV2, 3 days
Experimental: MRC-5SV2 cells were cultured in Earl’s MEM + 5% FCSi. Assays were performed in 96-well microtiter plates, each well containing about 10^4 cells/well. After 3 days of incubation with or without compounds, cell viability was assessed fluorimetrically after the addition of resazurin (λex 550 nm, λem 590 nm). The results were expressed as % reduction in cell growth/viability compared to untreated control wells and CC50 was determined. Testing/retesting strategy was as described above for HepG2 cells.

[16] = system: E. coli MG1655 ΔtolC resistant mutants; experiment: microbe, parasite or virus in culture; format: cell-based; conditions: for MIC: Escherichia coli
[17] = 95% confidence interval in parentheses, 50 nM enzyme, 50 μM menadione, >100: no significant inhibition at 100 μM
[18] = same IC50 given in μg/mL to assist comparisons with MICs

Chain of MsNDH-2 (A0QYD6 1-457): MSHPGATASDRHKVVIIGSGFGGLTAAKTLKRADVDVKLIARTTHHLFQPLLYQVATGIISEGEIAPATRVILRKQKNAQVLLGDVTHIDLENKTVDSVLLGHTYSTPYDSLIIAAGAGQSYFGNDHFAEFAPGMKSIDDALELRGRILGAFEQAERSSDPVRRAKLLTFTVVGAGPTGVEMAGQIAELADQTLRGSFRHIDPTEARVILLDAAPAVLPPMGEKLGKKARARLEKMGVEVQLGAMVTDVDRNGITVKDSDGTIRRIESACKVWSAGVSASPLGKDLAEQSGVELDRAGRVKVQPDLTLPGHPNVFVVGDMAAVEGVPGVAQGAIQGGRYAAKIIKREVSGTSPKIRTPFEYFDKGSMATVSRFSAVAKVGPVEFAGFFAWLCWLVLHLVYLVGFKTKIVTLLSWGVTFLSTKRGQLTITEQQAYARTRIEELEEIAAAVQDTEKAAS
T1 sequence (P95160 2-463, added parts left off): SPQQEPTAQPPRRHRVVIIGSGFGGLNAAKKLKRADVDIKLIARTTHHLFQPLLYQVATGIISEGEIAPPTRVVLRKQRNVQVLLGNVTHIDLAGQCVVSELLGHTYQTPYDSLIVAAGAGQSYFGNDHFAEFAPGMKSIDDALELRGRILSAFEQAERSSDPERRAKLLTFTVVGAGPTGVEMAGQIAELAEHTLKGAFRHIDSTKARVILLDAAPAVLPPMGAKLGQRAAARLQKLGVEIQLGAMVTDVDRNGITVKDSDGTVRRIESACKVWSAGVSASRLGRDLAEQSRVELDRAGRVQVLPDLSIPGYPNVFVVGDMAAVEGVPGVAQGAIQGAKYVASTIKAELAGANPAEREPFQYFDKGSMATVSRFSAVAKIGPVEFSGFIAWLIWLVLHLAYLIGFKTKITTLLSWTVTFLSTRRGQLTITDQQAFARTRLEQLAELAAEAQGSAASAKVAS

O=C(Cn1ccnc1[N+](=O)[O-])NCc1ccccc1 [Benznidazole]
IC50 [1]: 1700 nM

CCN(CC)CCCC(C)Nc1ccnc2cc(Cl)ccc12 (stereo not shown) [Chloroquine]
IC50 [2]: 210 nM

Cc1cccc(-c2cc(Nc3ccc4nc(-c5ccc(F)cc5)cc(N)c4c3)nc(N)n2)c1 [Compound 1, N^6-(2-Amino-6-m-tolylpyrimidin-4-yl)-2-(4-fluorophenyl)quinoline-4,6-diamine, reference compound]
MIC [3]: 8 µg/mL (≈ 18.3 µM)
IC50 [4]: 26 nM and 22.9 nM
IC50 [5, 17]: 1600 nM
IC50 [5, 18]: 1600 nM
MIC [6]: > 128 µg/mL
IC50 [7]: 96 nM
MIC [8]: > 128 µg/mL
MIC [9]: 1 µg/mL (≈ 2.29 µM)
MIC [10]: 2.6 µg/mL (≈ 5.96 µM)
MIC [11]: 4 µg/mL (≈ 9.16 µM)
MIC Kp WT [12]: >128 µg/mL
MIC [13]: 128 µg/mL (≈ 293 µM)
MIC [14]: 64 µg/mL (≈ 147 µM)
IC50 at 3 days ([15]; resazurin): 1300 nM
IC50 at 3 days ([15]; value in parentheses): 0.6 µg/mL

CC(C)(C)OC(=O)NCC1CCN(c2cc(Nc3ccc4nc(-c5ccc(F)cc5)cc(N)c4c3)nc(N)n2)CC1 [Compound 8g, tert-Butyl ((1-(2-Amino-6-((4-amino-2-(4-fluorophenyl)quinolin-6-yl)amino)pyrimidin-4-yl)piperidin-4-yl)methyl)carbamate]
MIC [3]: 4 µg/mL (≈ 7.16 µM)
IC50 [4]: 290 nM and 286 nM
IC50 [5, 17]: 580 nM
IC50 [5, 18]: 537 nM
MIC [6]: > 128 µg/mL
MIC ([16]; MG1655, read-out: MIC mutant, mutant CH5053 raised against 8g, ackA Leu255Arg): 16 µg/mL (≈ 28.6 µM)
MIC ([16]; MG1655, read-out: MIC mutant, mutant CH5054 raised against 8g, ackA Glu375 stop codon): 16 µg/mL (≈ 28.6 µM)
MIC ([16]; MG1655, read-out: MIC mutant, mutant CH5055 raised against 8g, ackA Thr233Pro): 16 µg/mL (≈ 28.6 µM)
MIC ([16]; MG1655, read-out: MIC mutant, mutant CH5056 raised against 8g, ackA Gly275Asp): 16 µg/mL (≈ 28.6 µM)
MIC ([16]; MG1655, read-out: MIC mutant, mutant CH5057 raised against 8g, eno Pro38Leu): 8 µg/mL (≈ 14.3 µM)
MIC ([16]; MG1655, read-out: MIC mutant, mutant CH5058 raised against 8g, ackA Ile92fs): 16 µg/mL (≈ 28.6 µM)
MIC ([16]; MG1655, read-out: MIC mutant, mutant CH5059 raised against 8g, ackA Arg91Ser): 16 µg/mL (≈ 28.6 µM)
MIC ([16]; MG1655, read-out: MIC mutant, mutant CH5062 raised against 8g, ackA Gly241Asp): 16 µg/mL (≈ 28.6 µM)
MIC ([16]; MG1655, read-out: MIC mutant, mutant CH5063 raised against 8g, ackA Arg91Leu): 16 µg/mL (≈ 28.6 µM)
fold increase of MIC ([16]; mutant CH5053 vs parent E. coli MG1655 ΔtolC): 4
fold increase of MIC ([16]; mutant CH5054 vs parent E. coli MG1655 ΔtolC): 4
fold increase of MIC ([16]; mutant CH5055 vs parent E. coli MG1655 ΔtolC): 4
fold increase of MIC ([16]; mutant CH5056 vs parent E. coli MG1655 ΔtolC): 4
fold increase of MIC ([16]; mutant CH5057 vs parent E. coli MG1655 ΔtolC): 2
fold increase of MIC ([16]; mutant CH5058 vs parent E. coli MG1655 ΔtolC): 4
fold increase of MIC ([16]; mutant CH5059 vs parent E. coli MG1655 ΔtolC): 4
fold increase of MIC ([16]; mutant CH5062 vs parent E. coli MG1655 ΔtolC): 4
fold increase of MIC ([16]; mutant CH5063 vs parent E. coli MG1655 ΔtolC): 4
MIC [8]: > 128 µg/mL
MIC [9]: 4 µg/mL (≈ 7.16 µM)
MIC [10]: 6.8 µg/mL (≈ 12.2 µM)
MIC [11]: 4 µg/mL (≈ 7.16 µM)
MIC Kp WT [12]: 128 µg/mL (≈ 229 µM)
MIC [13]: 128 µg/mL (≈ 229 µM)
MIC [14]: 4 µg/mL (≈ 7.16 µM)
IC50 at 3 days ([15]; resazurin): 1400 nM
IC50 at 3 days ([15]; value in parentheses): 0.8 µg/mL

— publication PMC8922281, “Synthesis and In Vitro Biological Evaluation of Quinolinyl Pyrimidines Targeting Type II NADH-Dehydrogenase (NDH-2)” (ACS Infectious Diseases, 2022)
